{
  "source": "patent US20190083649A1",
  "about": "“CROSSLINKED POLYMER NANO-ASSEMBLIES AND USES THEREOF” (University of Massachusetts, priority 2017, published 2019)",
  "origin": "cited, not measured here",
  "data": [
    {"smiles": "C=C(C)C(=O)OCCN(C(C)C)C(C)C", "note": "[DPA, 2-(diisopropylamino)ethyl methacrylate]", "values": [
      {"measurement": "pKa of the protonated form of the amine", "result": "around 6.2"}
    ]}
  ]
}
